Measured values: ChEMBL document CHEMBL4024706 (Eur J Med Chem, 2017)

Legend:
Pfeiffer = test: Cell cycle arrest in human Pfeiffer cells assessed as increase in accumulation at G0/G1 phase after 48 hrs by propidium iodide/RNase staining based flow cytometric method; type: functional
[1] = MRT (0 to t) in Sprague-Dawley rat at 1 mg/kg, iv by LC-MS/MS method; type: ADME, organism-based; conditions: in vivo
[2] = Cmax in Sprague-Dawley rat at 1 mg/kg, iv by LC-MS/MS method; type: ADME, organism-based; design: dose 1 mg/kg, route intravenous; conditions: in vivo
[3] = biological target: Tyrosine-protein kinase ABL2 (Homo sapiens) (UniProt P42684); test: Inhibition of wild-type human ABL2 (A248 to G542 residues) expressed in bacterial expression system assessed as residual activity at 1 uM by Kinomescan method relative to control
Sequence of Tyrosine-protein kinase ABL2 (Homo sapiens) (P42684 whole entry, the tested form may be a part, canonical isoform): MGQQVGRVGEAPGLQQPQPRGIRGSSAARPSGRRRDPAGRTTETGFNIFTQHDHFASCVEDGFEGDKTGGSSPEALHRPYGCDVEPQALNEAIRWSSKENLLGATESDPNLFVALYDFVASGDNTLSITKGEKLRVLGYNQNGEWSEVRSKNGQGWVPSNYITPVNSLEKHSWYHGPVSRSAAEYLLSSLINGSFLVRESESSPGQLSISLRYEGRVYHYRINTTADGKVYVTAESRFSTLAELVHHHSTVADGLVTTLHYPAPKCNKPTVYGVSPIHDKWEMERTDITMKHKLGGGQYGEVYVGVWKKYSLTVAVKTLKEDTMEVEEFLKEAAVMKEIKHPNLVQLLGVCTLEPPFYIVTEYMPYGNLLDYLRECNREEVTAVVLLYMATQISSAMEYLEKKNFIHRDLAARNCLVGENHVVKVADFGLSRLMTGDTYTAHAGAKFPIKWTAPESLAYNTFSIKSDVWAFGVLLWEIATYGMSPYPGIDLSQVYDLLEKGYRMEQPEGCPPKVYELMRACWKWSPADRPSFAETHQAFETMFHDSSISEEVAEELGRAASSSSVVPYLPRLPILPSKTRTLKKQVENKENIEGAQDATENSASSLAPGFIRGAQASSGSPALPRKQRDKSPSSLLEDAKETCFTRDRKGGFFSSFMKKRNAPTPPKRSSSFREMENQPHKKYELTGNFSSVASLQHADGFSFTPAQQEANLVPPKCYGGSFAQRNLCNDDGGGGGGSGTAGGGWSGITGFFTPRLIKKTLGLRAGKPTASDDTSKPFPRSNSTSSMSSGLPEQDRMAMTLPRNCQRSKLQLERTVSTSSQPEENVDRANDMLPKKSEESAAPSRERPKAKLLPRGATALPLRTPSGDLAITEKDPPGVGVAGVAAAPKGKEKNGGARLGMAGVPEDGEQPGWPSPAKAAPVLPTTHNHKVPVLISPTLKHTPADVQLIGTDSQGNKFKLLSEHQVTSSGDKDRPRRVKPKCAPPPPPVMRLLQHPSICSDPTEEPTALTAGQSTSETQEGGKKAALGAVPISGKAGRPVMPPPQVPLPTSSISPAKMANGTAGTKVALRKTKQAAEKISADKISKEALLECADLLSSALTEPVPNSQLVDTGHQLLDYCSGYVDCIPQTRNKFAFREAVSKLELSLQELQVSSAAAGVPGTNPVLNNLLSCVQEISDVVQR

[4] = biological target: Casein kinase I isoform alpha-like (Homo sapiens) (UniProt Q8N752); test: Inhibition of wild-type human full length CSNK1A1L (M1 to N337 residues) expressed in bacterial expression system assessed as residual activity at 1 uM by Kinomescan method relative to control
Sequence of Casein kinase I isoform alpha-like (Homo sapiens) (Q8N752 whole entry, the tested form may be a part, canonical isoform): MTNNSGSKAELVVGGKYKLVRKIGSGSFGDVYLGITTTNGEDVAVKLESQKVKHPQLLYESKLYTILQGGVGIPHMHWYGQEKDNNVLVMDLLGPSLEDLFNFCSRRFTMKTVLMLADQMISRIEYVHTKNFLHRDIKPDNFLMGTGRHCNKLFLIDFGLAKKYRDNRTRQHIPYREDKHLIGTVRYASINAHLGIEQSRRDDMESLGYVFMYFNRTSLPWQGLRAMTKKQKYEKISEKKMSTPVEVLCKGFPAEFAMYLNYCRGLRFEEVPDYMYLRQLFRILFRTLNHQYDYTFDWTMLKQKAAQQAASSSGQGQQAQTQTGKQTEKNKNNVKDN

[5] = biological target: Death-associated protein kinase 2 (Homo sapiens) (UniProt Q9UIK4); test: Inhibition of wild-type human full length DAPK2 (M1 to S370 residues) expressed in bacterial expression system assessed as residual activity at 1 uM by Kinomescan method relative to control
[6] = biological target: Tyrosine-protein kinase FRK (Homo sapiens) (UniProt P42685); test: Inhibition of wild-type human partial length FRK (A215 to F503 residues) expressed in bacterial expression system assessed as residual activity at 1 uM by Kinomescan method relative to control
Sequence of Tyrosine-protein kinase FRK (Homo sapiens) (P42685 whole entry, the tested form may be a part): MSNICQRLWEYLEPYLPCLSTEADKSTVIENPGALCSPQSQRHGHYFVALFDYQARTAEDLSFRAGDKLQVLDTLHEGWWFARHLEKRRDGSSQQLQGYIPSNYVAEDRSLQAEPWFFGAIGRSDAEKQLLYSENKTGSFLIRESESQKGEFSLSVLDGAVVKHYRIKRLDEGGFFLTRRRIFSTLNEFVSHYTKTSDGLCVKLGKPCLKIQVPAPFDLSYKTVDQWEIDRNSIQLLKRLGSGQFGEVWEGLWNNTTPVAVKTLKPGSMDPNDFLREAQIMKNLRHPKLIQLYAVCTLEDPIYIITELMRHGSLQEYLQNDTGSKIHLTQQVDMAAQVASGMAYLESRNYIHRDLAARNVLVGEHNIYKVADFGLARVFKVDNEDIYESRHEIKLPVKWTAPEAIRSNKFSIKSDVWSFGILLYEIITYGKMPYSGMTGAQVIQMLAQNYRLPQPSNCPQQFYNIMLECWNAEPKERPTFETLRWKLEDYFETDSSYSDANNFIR

[7] = biological target: Rhodopsin kinase GRK7 (Homo sapiens) (UniProt Q8WTQ7); test: Inhibition of wild-type human full length GRK7 (M1 to L553 residues) expressed in mammalian expression system assessed as residual activity at 1 uM by Kinomescan method relative to control
Sequence of Rhodopsin kinase GRK7 (Homo sapiens) (Q8WTQ7 whole entry, the tested form may be a part): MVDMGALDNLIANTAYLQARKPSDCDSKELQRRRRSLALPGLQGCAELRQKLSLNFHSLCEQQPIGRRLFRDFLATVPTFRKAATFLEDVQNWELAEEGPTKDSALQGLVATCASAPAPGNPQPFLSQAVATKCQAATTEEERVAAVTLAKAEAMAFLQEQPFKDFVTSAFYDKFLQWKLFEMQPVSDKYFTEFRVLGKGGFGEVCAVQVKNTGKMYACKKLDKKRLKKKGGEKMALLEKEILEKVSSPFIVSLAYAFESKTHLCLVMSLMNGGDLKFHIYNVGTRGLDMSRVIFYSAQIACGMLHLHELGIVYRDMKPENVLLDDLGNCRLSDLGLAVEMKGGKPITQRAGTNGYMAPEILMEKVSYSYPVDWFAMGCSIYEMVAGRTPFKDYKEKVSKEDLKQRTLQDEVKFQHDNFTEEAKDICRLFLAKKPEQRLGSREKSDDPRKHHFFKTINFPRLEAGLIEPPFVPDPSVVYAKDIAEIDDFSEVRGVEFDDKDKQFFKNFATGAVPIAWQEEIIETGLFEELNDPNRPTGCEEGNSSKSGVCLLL

[8] = test system: Mast/stem cell growth factor receptor Kit (Homo sapiens), P10721 [D816H]; test: Inhibition of human partial length KIT D816H mutant (I571 to D952 residues) expressed in mammalian expression system assessed as residual activity at 1 uM by Kinomescan method relative to control
[9] = biological target: MAP kinase-activated protein kinase 2 (Homo sapiens) (UniProt P49137); test: Inhibition of wild-type human partial length MAPKAPK2 (V48 to D345 residues) expressed in bacterial expression system assessed as residual activity at 1 uM by Kinomescan method relative to control
Sequence of MAP kinase-activated protein kinase 2 (Homo sapiens) (P49137 whole entry, looked up, the tested form may be a part): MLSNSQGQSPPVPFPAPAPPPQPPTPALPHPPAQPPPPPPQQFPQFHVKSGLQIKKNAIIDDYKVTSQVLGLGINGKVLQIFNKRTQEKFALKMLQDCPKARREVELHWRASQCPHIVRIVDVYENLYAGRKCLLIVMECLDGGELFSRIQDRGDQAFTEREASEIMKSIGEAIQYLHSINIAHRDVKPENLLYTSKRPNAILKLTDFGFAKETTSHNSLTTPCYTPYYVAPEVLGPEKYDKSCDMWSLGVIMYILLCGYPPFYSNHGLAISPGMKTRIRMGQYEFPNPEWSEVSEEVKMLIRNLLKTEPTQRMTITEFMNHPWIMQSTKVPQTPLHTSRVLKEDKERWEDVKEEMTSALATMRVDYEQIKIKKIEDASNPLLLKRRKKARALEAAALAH

[10] = biological target: Serine/threonine-protein kinase NIM1 (Homo sapiens) (UniProt Q8IY84); test: Inhibition of wild-type human partial length NIM1 (Q44 to N355 residues) expressed in mammalian expression system assessed as residual activity at 1 uM by Kinomescan method relative to control
[11] = biological target: Serine/threonine-protein kinase OSR1 (Homo sapiens) (UniProt O95747); test: Inhibition of wild-type human full length OSR1 (M1 to S527 residues) expressed in mammalian expression system assessed as residual activity at 1 uM by Kinomescan method relative to control
[12] = biological target: Serine/threonine-protein kinase PAK 1 (Homo sapiens) (UniProt Q13153); test: Inhibition of wild-type human partial length PAK1 (S149 to H545 residues) expressed in bacterial expression system assessed as residual activity at 1 uM by Kinomescan method relative to control
[13] = biological target: Cyclin-dependent kinase 16 (Homo sapiens) (UniProt Q00536); test: Inhibition of wild-type human partial length PCTK1 (G160 to A474 residues) expressed in mammalian expression system assessed as residual activity at 1 uM by Kinomescan method relative to control
[14] = biological target: Cyclin-dependent kinase 18 (Homo sapiens) (UniProt Q07002); test: Inhibition of wild-type human full length PCTK3 (M3 to F474 residues) expressed in bacterial expression system assessed as residual activity at 1 uM by Kinomescan method relative to control
Sequence of Cyclin-dependent kinase 18 (Homo sapiens) (Q07002 whole entry, the tested form may be a part, canonical isoform): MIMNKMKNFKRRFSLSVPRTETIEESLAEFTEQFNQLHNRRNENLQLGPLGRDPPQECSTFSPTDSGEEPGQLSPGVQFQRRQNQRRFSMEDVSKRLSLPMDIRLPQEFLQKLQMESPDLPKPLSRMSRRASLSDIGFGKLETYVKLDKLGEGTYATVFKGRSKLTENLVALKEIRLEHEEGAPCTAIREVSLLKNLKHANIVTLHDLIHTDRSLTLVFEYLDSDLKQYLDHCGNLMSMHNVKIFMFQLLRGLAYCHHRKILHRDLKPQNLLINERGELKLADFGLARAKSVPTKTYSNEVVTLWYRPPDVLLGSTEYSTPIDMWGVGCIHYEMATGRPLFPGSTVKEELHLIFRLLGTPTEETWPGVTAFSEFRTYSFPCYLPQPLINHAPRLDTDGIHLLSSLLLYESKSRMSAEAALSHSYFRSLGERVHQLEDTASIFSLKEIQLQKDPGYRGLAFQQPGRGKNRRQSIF

[15] = test system: Phosphatidylinositol 4,5-bisphosphate 3-kinase catalytic subunit alpha isoform (Homo sapiens), P42336 [I800L]; test: Inhibition of human partial length PIK3CA I800L mutant (R108 to N1068 residues) expressed in mammalian expression system assessed as residual activity at 1 uM by Kinomescan method relative to control
[16] = test system: Phosphatidylinositol 4,5-bisphosphate 3-kinase catalytic subunit alpha isoform (Homo sapiens), P42336 [Q546K]; test: Inhibition of human partial length PIK3CA Q546K mutant (R108 to N1068 residues) expressed in mammalian expression system assessed as residual activity at 1 uM by Kinomescan method relative to control
[17] = biological target: Phosphatidylinositol 4-kinase beta (Homo sapiens) (UniProt Q9UBF8); test: Inhibition of wild-type human full length PIK4CB (M1 to M828 residues) expressed in mammalian expression system assessed as residual activity at 1 uM by Kinomescan method relative to control
[18] = biological target: Phosphatidylinositol 4-phosphate 5-kinase type-1 alpha (Homo sapiens) (UniProt Q99755); test: Inhibition of wild-type human full length PIP5K1A (M1 to H562 residues) expressed in bacterial expression system assessed as residual activity at 1 uM by Kinomescan method relative to control
Sequence of Phosphatidylinositol 4-phosphate 5-kinase type-1 alpha (Homo sapiens) (Q99755 whole entry, the tested form may be a part): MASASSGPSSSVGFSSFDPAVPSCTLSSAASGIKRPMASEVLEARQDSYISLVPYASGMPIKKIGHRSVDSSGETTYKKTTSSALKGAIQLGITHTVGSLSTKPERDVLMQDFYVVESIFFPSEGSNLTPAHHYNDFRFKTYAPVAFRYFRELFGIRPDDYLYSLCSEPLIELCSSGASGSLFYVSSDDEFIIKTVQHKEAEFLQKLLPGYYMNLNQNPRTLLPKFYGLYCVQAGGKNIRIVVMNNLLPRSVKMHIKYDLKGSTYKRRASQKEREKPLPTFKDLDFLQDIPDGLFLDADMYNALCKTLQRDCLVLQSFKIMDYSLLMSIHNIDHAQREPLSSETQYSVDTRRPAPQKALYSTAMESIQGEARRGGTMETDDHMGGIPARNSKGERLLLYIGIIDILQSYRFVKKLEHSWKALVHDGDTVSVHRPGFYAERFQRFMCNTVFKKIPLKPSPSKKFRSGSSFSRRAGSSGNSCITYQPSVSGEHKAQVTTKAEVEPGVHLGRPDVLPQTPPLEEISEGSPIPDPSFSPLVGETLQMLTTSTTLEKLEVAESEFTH

[19] = biological target: Proto-oncogene tyrosine-protein kinase receptor Ret (Homo sapiens) (UniProt P07949); test: Inhibition of wild-type human partial length RET (E713 to D1014 residues) expressed in bacterial expression system assessed as residual activity at 1 uM by Kinomescan method relative to control
[20] = biological target: Dual serine/threonine and tyrosine protein kinase (Homo sapiens) (UniProt Q6XUX3); test: Inhibition of wild-type human full length RIPK5 (M1 to T929 residues) expressed in mammalian expression system assessed as residual activity at 1 uM by Kinomescan method relative to control
[21] = biological target: Rho-associated protein kinase 2 (Homo sapiens) (UniProt O75116); test: Inhibition of wild-type human partial length ROCK2 (M1 to T431 residues) expressed in mammalian expression system assessed as residual activity at 1 uM by Kinomescan method relative to control
[22] = biological target: Ribosomal protein S6 kinase alpha-5 (Homo sapiens) (UniProt O75582); test: Inhibition of wild-type human partial length N-terminal RPS6KA5 kinase domain 1 expressed in bacterial expression system assessed as residual activity at 1 uM by Kinomescan method relative to control
[23] = biological target: Ribosomal protein S6 kinase beta-1 (Homo sapiens) (UniProt P23443); test: Inhibition of wild-type human partial length S6K1 (M1 to S421 residues) expressed in mammalian expression system assessed as residual activity at 1 uM by Kinomescan method relative to control
[24] = biological target: Phosphatidylinositol 3-kinase catalytic subunit type 3 (Homo sapiens) (UniProt Q8NEB9); test: Inhibition of wild-type human partial length VPS34 (S282 to H879 residues) expressed in mammalian expression system assessed as residual activity at 1 uM by Kinomescan method relative to control
[25] = biological target: Mitogen-activated protein kinase kinase kinase 20 (Homo sapiens) (UniProt Q9NYL2); test: Inhibition of wild-type human partial length ZAK (M1 to L331 residues) expressed in bacterial expression system assessed as residual activity at 1 uM by Kinomescan method relative to control
Sequence of Mitogen-activated protein kinase kinase kinase 20 (Homo sapiens) (Q9NYL2 2-800 limits assumed): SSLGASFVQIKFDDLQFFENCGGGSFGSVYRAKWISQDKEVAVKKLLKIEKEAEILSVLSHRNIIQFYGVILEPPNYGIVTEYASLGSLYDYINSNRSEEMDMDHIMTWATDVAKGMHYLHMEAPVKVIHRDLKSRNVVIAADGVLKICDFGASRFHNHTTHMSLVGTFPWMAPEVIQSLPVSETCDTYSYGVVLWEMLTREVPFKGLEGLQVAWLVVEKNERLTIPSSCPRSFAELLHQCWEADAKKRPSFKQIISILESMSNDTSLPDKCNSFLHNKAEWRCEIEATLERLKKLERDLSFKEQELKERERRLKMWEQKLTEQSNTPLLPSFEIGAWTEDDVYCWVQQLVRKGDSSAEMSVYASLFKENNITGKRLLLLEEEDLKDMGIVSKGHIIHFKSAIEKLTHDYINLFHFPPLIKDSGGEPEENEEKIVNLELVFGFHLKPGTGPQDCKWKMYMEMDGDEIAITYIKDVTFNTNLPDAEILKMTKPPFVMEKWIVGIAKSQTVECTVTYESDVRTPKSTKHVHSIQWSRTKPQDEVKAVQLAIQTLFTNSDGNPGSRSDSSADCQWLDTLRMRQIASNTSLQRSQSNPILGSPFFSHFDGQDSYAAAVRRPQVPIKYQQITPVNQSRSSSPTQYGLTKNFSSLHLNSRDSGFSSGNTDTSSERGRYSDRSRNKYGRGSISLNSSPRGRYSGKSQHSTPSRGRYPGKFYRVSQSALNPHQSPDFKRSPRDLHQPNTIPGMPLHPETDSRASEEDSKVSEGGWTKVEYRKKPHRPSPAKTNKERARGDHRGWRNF

## C=CC(=O)Nc1cc(Nc2cc(-c3cccc(NC(=O)c4ccc(C(C)(C)C)cc4)c3C)cn(C)c2=O)ccc1C(=O)N1CCOCC1
Pfeiffer
  Activity: Dose-dependent effect
[1]
  MRT last: 15.6 min
[2]
  Cmax: 897 ng/mL
[3]
  Activity: 100%
[4]
  Activity: 100%
[5]
  Activity: 99%
[6]
  Activity: 84%
[7]
  Activity: 94%
[8]
  Activity: 94%
[9]
  Activity: 88%
[10]
  Activity: 100%
[11]
  Activity: 100%
[12]
  Activity: 90%
[13]
  Activity: 99%
[14]
  Activity: 98%
[15]
  Activity: 100%
[16]
  Activity: 87%
[17]
  Activity: 90%
[18]
  Activity: 95%
[19]
  Activity: 87%
[20]
  Activity: 90%
[21]
  Activity: 92%
[22]
  Activity: 97%
[23]
  Activity: 100%
[24]
  Activity: 90%
[25]
  Activity: 94%
